Target: T1, CPP-32 (Homo sapiens, UniProt P42574)
T1 sequence (P42574 29-175 limits assumed): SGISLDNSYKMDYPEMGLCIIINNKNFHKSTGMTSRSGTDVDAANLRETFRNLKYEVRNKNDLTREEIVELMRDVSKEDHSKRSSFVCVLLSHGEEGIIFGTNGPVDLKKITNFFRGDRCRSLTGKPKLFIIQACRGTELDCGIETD
Test: S-nitrosylation of purified p17
Format: biochemical

p17 wt / S-nitrosylation / S-NO/protein: 1 ± 0.04 mol/mol
SMILES: [N]=O [NO, nitric oxide]

Reference: PMC2196141 (The Journal of Experimental Medicine, 1997)
